These results are taken from patent US7662832B2, “Pyrrolo[2,3-c]pyridine derivatives and processes for the preparation thereof” (priority 2004, dated 2010).

SMILES strings stand for the structures. Where a name gives a salt, the structure may show the parent alone.

Sequence of Proton Pump (H^+/K^+-ATPase) (P19156 2-1034 limits assumed): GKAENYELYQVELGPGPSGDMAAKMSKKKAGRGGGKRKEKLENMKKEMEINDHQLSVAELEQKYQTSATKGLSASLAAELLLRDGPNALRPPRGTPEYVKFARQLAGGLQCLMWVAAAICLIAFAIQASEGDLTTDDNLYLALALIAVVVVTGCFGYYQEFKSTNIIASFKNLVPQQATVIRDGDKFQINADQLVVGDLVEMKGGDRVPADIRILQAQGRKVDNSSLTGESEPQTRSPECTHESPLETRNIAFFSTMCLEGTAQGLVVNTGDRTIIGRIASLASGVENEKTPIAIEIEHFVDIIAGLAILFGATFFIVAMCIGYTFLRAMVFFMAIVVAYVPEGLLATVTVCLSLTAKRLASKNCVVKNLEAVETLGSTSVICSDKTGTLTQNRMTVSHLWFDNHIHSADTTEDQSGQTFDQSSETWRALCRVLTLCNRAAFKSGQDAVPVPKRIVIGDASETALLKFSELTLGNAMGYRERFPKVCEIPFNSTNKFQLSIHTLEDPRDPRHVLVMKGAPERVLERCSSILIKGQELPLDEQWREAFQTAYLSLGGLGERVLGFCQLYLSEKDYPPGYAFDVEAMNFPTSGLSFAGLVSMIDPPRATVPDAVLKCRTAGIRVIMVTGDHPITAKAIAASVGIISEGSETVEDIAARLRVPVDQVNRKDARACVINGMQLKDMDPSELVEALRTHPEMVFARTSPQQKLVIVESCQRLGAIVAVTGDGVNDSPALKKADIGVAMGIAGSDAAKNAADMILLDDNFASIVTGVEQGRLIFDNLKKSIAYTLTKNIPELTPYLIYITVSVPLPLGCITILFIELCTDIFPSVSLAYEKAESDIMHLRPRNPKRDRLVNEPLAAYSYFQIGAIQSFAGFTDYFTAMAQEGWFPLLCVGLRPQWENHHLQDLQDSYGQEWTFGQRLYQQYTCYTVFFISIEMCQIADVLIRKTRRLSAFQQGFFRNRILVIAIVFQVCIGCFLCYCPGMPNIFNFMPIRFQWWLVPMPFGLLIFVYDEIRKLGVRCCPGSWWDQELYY
Sequence of Proton Pump (H^+/K^+-ATPase) (P18434 whole entry partner): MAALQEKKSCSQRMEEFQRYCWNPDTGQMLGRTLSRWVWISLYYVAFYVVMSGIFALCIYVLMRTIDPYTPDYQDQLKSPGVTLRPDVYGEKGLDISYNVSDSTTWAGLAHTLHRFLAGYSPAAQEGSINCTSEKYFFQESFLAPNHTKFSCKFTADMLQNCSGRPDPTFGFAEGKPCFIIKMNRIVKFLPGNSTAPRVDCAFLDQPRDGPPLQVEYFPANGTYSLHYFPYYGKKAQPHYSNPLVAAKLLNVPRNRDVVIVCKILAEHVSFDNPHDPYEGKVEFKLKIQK

This test concerns the target Proton Pump (H^+/K^+-ATPase) (Sus scrofa, UniProt P19156). As to the kind of experiment: Inhibitory effects on proton pump (H^+/K^+-ATPase) activity. Particulars: hog gastric vesicles; K^+ stimulated H^+/K^+-ATPase activity; 30 minutes at 37° C. It is filed as biochemical.
By IC50 is commonly meant the concentration that gives 50% inhibition. A high value points to a need for much substance. The compound `Cc1ccc(Cn2c(C)c(C)c3ccnc(N4CCc5ccc(F)cc5C4C)c32)cc1` (stereo not shown) [Example 548, 2-[2,3-dimethyl-1-(4-methylbenzyl)-1H-pyrrolo[2,3-c]pyridin-7-yl]-7-fluoro-1-methyl-1,2,3,4-tetrahydroisoquinoline hydrochloride] showed an IC50 of 410 nM.

Consider `C#CCn1c(C)c(C)c2ccnc(-c3ccc(C=C)cc3)c21` [Example 249, 2,3-dimethyl-1-(prop-2-ynyl)-7-(4-vinylphenyl)-1H-pyrrolo[2,3-c]pyridine hydrochloride], for which the midpoint of inhibition, the IC50, lay at 50 nM.

For `C=CCn1c(C)c(C)c2ccnc(N3CCc4ccc(Cl)cc4C3C)c21` (stereo not shown) [Example 531, 7-chloro-2-(1-allyl-2,3-dimethyl-1H-pyrrolo[2,3-c]pyridin-7-yl)-1-methyl-1,2,3,4-tetrahydroisoquinoline hydrochloride], inhibition was half-maximal at 190 nM (IC50).

`CC(C)=CCn1c(C)c(C)c2ccnc(N3CCc4ccccc4C3)c21` [Example 475, 1-(3-methylbut-2-enyl)-7-(1,2,3,4-tetrahydroisoquinolin-2-yl)-2,3-dimethyl-1H-pyrrolo[2,3-c]pyridine hydrochloride] registered an IC50 of 300 nM.

`C=CCn1c(C)c(C)c2ccnc(NCc3ccccc3)c21` [Example 176, 1-allyl-7-benzylamino-2,3-dimethyl-1H-pyrrolo[2,3-c]pyridine hydrochloride] yielded a concentration for half-maximal inhibition (IC50) of 260 nM.

Turning to `C=Cc1ccc(-c2nccc3c(C)c(C)n(Cc4cccc(F)c4)c23)cc1` [Example 243, 1-(3-fluorobenzyl)-2,3-dimethyl-7-(4-vinylphenyl)-1H-pyrrolo[2,3-c]pyridine hydrochloride], the concentration for half-maximal inhibition (IC50) turned out to be 90 nM.

The compound `Cc1c(C)n(Cc2cccc(F)c2)c2c(N3CCc4ccccc4C3)nc(N)cc12` [Example 847, 7-(3,4-dihydro-1H-isoquinolin-2-yl)-1-(3-fluorobenzyl)-2,3-dimethyl-1H-pyrrolo[2,3-c]pyridin-5-amine hydrochloride] came in with an IC50 of 62 nM.

`Cc1c(C)n(Cc2ccccc2)c2c(N3CCc4ccc(F)cc4C3C)nccc12` (stereo not shown) [Example 547, 2-(1-benzyl-2,3-dimethyl-1H-pyrrolo[2,3-c]pyridin-7-yl)-7-fluoro-1-methyl-1,2,3,4-tetrahydroisoquinoline hydrochloride] had an IC50 of 130 nM.

For `C=CCn1c(C)c(C)c2ccnc(N3CCc4ccccc4C3)c21` [Example 489, 1-allyl-7-(1,2,3,4-tetrahydroisoquinolin-2-yl)-2,3-dimethyl-1H-pyrrolo[2,3-c]pyridine p-toluenesulfonate], the half-maximal inhibitory concentration (IC50) was found to be 3 nM.

With `Cc1c(C)n(CC2CC2)c2c(N3CCc4ccccc4C3)nc(C(=O)N3CCCCC3)cc12` [Example 793, [1-cyclopropylmethyl-7-(3,4-dihydro-1H-isoquinolin-2-yl)-2,3-dimethyl-1H-pyrrolo[2,3-c]pyridin-5-yl]-(piperidin-1-yl)-methanone hydrochloride], the midpoint of inhibition, the IC50, lay at 117 nM.

For `Cc1c(C)n(Cc2ccc(C(F)(F)F)cc2)c2c(N3CCc4ccccc4C3)nccc12` [Example 500, 7-(1,2,3,4-tetrahydroisoquinolin-2-yl)-1-(4-trifluoromethylbenzyl)-2,3-dimethyl-1H-pyrrolo[2,3-c]pyridine hydrochloride], the half-inhibitory concentration (IC50) amounted to 270 nM.

The compound `Cc1nc(Cn2c(C)c(C)c3ccnc(N4CCc5ccc(Cl)cc5C4C)c32)cs1` (stereo not shown) [Example 538, 7-chloro-2-[2,3-dimethyl-1-(2-methylthiazol-4-ylmethyl)-1H-pyrrolo[2,3-c]pyridin-7-yl]-1-methyl-1,2,3,4-tetrahydroisoquinoline hydrochloride] yielded an IC50 of 244 nM.

For the compound `Cc1c(C)n(Cc2ccncc2)c2c(N3CCc4ccccc4C3)nccc12` [Example 518, 1-(pyridin-4-ylmethyl)-7-(1,2,3,4-tetrahydroisoquinolin-2-yl)-2,3-dimethyl-1H-pyrrolo[2,3-c]pyridine hydrochloride], half-maximal inhibition (IC50) required 179 nM.

Compound `Cc1ccc(Cn2c(C)c(C)c3ccnc(NCc4ccc(Cl)cc4)c32)cc1` [Example 221, 7-(4-chlorobenzylamino)-2,3-dimethyl-1-(4-methylbenzyl)-1H-pyrrolo[2,3-c]pyridine hydrochloride] came in with an IC50 of 630 nM.

Compound `Cc1c(C)n(Cc2cccc(F)c2)c2c(N3CCc4ccccc4C3)nc(C=O)cc12` [Example 864, 7-(3,4-dihydro-1H-isoquinolin-2-yl)-1-(3-fluorobenzyl)-2,3-dimethyl-1H-pyrrolo[2,3-c]pyridin-5-carbaldehyde hydrochloride] yielded an IC50 of 213 nM.

`C=CCn1c(C)c(C)c2cc(C(=O)NC)nc(N3CCc4ccccc4C3)c21` [Example 757, 1-allyl-7-(3,4-dihydro-1H-isoquinolin-2-yl)-2,3-dimethyl-N-methyl-1H-pyrrolo[2,3-c]pyridin-5-carboxamide hydrochloride] had a 50% inhibitory concentration (IC50) of 30 nM.

`COc1cccc(Cn2c(C)c(C)c3cc(C(=O)N4CCNCC4)nc(N4CCc5ccccc5C4)c32)c1` [Example 822, [7-(3,4-dihydro-1H-isoquinolin-2-yl)-1-(3-methoxybenzyl)-2,3-dimethyl-1H-pyrrolo[2,3-c]pyridin-5-yl]-(piperazin-1-yl)-methanone hydrochloride] registered an IC50 of 23 nM.

As to `COCCn1c(C)c(C)c2ccnc(CN(C)c3ccc(F)cc3)c21` [Example 120, N-(4-fluorophenyl)-N-[1-(2-methoxyethyl)-2,3-dimethyl-1H-pyrrolo[2,3-c]pyridin-7-ylmethyl]-methylamine hydrochloride], the IC50 was found to be 444 nM.

As for `Cc1c(C)n(Cc2ccc(F)cc2)c2c(N3CCc4ccccc4C3)nccc12` [Example 471, 1-(4-fluorobenzyl)-7-(1,2,3,4-tetrahydroisoquinolin-2-yl)-2,3-dimethyl-1H-pyrrolo[2,3-c]pyridine hydrochloride], inhibition was half-maximal at 230 nM (IC50).

Compound `Cc1c(C)n(Cc2cccc(F)c2)c2c(N3CCc4ccccc4C3)nc(Cl)cc12` [Example 657, 5-chloro-[1-(3-fluorobenzyl)-7-(1,2,3,4-tetrahydroisoquinolin-2-yl)]-2,3-dimethyl-1H-pyrrolo[2,3-c]pyridine hydrochloride] displayed a 50% inhibitory concentration (IC50) of 240 nM.

Compound `COCCn1c(C)c(C)c2ccnc(N3CCc4ccccc4C3C)c21` (stereo not shown) [Example 555, 2-[1-(2-methoxyethyl)-2,3-dimethyl-1H-pyrrolo[2,3-c]pyridin-7-yl]-1-methyl-1,2,3,4-tetrahydroisoquinoline hydrochloride] displayed an IC50 of 230 nM.

`Cc1[nH]c2c(-c3ccc(Cl)cc3)nccc2c1C` [Example 299, 7-(4-chlorophenyl)-2,3-dimethyl-1H-pyrrolo[2,3-c]pyridine hydrochloride] gave a half-inhibitory concentration (IC50) of 350 nM.

Compound `Cc1c(C)n(Cc2ccc(C(C)(C)C)cc2)c2c(-c3ccc4ccccc4c3)nccc12` [Example 406, 1-(4-tert-butylbenzyl)-2,3-dimethyl-7-(naphthalen-2-yl)-1H-pyrrolo[2,3-c]pyridine hydrochloride] gave a half-maximal inhibitory concentration (IC50) of 189 nM.

As for `CCn1c(C)c(C)c2ccnc(NCc3ccccc3C)c21` [Example 225, 1-ethyl-2,3-dimethyl-7-(2-methylbenzylamino)-1H-pyrrolo[2,3-c]pyridine hydrochloride], it took 350 nM to reach half-maximal inhibition (IC50).

On to `COCCn1c(C)c(C)c2ccnc(-c3ccc(SC)cc3)c21` [Example 264, 1-(2-methoxyethyl)-2,3-dimethyl-7-(4-methylsulfanylphenyl)-1H-pyrrolo[2,3-c]pyridine hydrochloride], for which the midpoint of inhibition, the IC50, lay at 490 nM.

For `Cc1c(C)n(Cc2ccccc2)c2c(N3CCc4ccccc4C3)nc(CO)cc12` [Example 850, [1-benzyl-7-(3,4-dihydro-1H-isoquinolin-2-yl)-2,3-dimethyl-1H-pyrrolo[2,3-c]pyridin-5-yl]-methanol hydrochloride], the 50% inhibitory concentration (IC50) is 53 nM.

The compound `C=C=Cn1c(C)c(C)c2ccnc(N3CCc4ccccc4C3)c21` [Example 526, 1-(propa-1,2-dienyl)-7-(1,2,3,4-tetrahydroisoquinolin-2-yl)-2,3-dimethyl-1H-pyrrolo[2,3-c]pyridine hydrochloride] came in with a 50% inhibitory concentration (IC50) of 179 nM.

`C=CCn1c(C)c(C)c2ccnc(N3CCc4ccccc4C3)c21` [Example 492, 1-allyl-7-(1,2,3,4-tetrahydroisoquinolin-2-yl)-2,3-dimethyl-1H-pyrrolo[2,3-c]pyridine phosphate] came in with an IC50 of 7 nM.

Regarding `Cc1c(C)n(Cc2ccccc2)c2c(N3CCc4ccccc4C3)nc(C(=O)O)cc12` [Example 733, 1-benzyl-7-(3,4-dihydro-1H-isoquinolin-2-yl)-2,3-dimethyl-1H-pyrrolo[2,3-c]pyridin-5-carboxylic acid], half-maximal inhibition (IC50) was put at 117 nM.

For `Cc1c(C)n(Cc2ccccc2)c2c(N3CCc4ccccc4C3C)nccc12` (stereo not shown) [Example 556, 2-(1-benzyl-2,3-dimethyl-1H-pyrrolo[2,3-c]pyridin-7-yl)-1-methyl-1,2,3,4-tetrahydroisoquinoline hydrochloride], inhibition was half-maximal at 130 nM (IC50).

Take `CSc1ccc(-c2nccc3c(C)c(C)n(Cc4ccc(F)cc4)c23)cc1` [Example 274, 2,3-dimethyl-1-(4-fluorobenzyl)-7-(4-methylsulfanylphenyl)-1H-pyrrolo[2,3-c]pyridine hydrochloride]: the IC50 stood at 420 nM.

Take `CCn1c(C)c(C)c2cc(C(=O)N3CC=CCC3)nc(N3CCc4ccccc4C3)c21` [Example 809, [7-(3,4-dihydro-1H-isoquinolin-2-yl)-1-ethyl-2,3-dimethyl-1H-pyrrolo[2,3-c]pyridin-5-yl]-(3,6-dihydro-2H-pyridin-1-yl)-methanone hydrochloride]: the IC50 amounted to 59 nM.

`CSc1ccc(-c2nccc3c(C)c(C)n(Cc4ccccc4)c23)cc1` [Example 268, 1-benzyl-2,3-dimethyl-7-(4-methylsulfanylphenyl)-1H-pyrrolo[2,3-c]pyridine hydrochloride] yielded an IC50 of 130 nM.

Consider `Cc1c(C)n(Cc2cccc(F)c2)c2c(N3CCc4ccccc4C3)nc(C(=O)N3CCCCC3)cc12` [Example 796, [7-(3,4-dihydro-1H-isoquinolin-2-yl)-1-(3-fluorobenzyl)-2,3-dimethyl-1H-pyrrolo[2,3-c]pyridin-5-yl]-(piperidin-1-yl)-methanone hydrochloride], for which it took 305 nM to reach half-maximal inhibition (IC50).
